Experimental data taken from patent publication US9957234B2, “Polymorphs of Ivacaftor, process for its preparation and pharmaceutical composition thereof” (Laurus Labs Limited, priority 2014, dated 2018).
Like-named read-outs stand apart in the source and are kept apart here. One block for each compound: values may come before it.

Columns and labels:
[1] = Saturation solubility studies in various mediums; format: physicochemical
Description: Saturation solubility studies were conducted in various mediums for ivacaftor polymorph Form-L2 and Amorphous form and the data is given in Table III.

[2] = Chemical and polymorphic stability study of Ivacaftor Form-L2 on storage (HPLC, XRD); format: physicochemical
Description: Ivacaftor Form L2 is packed in a transparent Low density polyethylene (LDPE) bag with a strip seal, which is again kept in a second transparent low density polyethylene bag with strip seal. The LDPE bag is kept in to a triple laminated sunlight barrier with heat seal followed by in a high density polyethylene container and well closed. The ivacaftor was analyzed using High Performance Liquid Chromatography (“HPLC”) with the conditions are tabulated below: [table]

[3] = stored at 25 ± 2° C./60 ± 5% RH, 1 month
[4] = stored at 25 ± 2° C./60 ± 5% RH, 3 month
[5] = stored at 25 ± 2° C./60 ± 5% RH, Initial
[6] = stored at 40 ± 2° C./75 ± 5% RH, 1 month
[7] = stored at 40 ± 2° C./75 ± 5% RH, 3 month
[8] = stored at 40 ± 2° C./75 ± 5% RH, Initial

- solubility ([1]; 0.001N HCl + 0.7% SLS, pH 3.12): 0.23 mg/mL
- solubility ([1]; 0.01N HCl + 0.7% SLS, pH 2.12): 0.18 mg/mL
- solubility ([1]; 50 mM Phosphate buffer + 0.7% SLS, pH 4.60): 0.19 mg/mL
- solubility ([1]; 0.1N HCl + 0.7% SLS, pH 1.10): 0.12 mg/mL
- solubility ([1]; pH 4.5 AB + 0.7% SLS, pH 4.52): 0.17 mg/mL
- solubility ([1]; pH 5.5 PB + 0.7% SLS, pH 5.53): 0.18 mg/mL
- solubility ([1]; pH 6.8 PB + 0.7% SLS, pH 6.80): 0.18 mg/mL
SMILES: CC(C)(C)c1cc(C(C)(C)C)c(NC(=O)c2c[nH]c3ccccc3c2=O)cc1O [Amorphous form, N-(2,4-di-tert-butyl-5-hydroxyphenyl)-1,4-dihydro-4-oxoquinoline-3-carboxamide, reference compound]

- Any major unknown impurity [2, 3]: 0.02 % by HPLC
- Description [2, 3]: off-white
- Solid form by XRD [2, 3]: Complies
- Total impurity [2, 3]: 0.02 % by HPLC
- Any major unknown impurity [2, 4]: 0.02 % by HPLC
- Description [2, 4]: off-white
- Solid form by XRD [2, 4]: Complies
- Total impurity [2, 4]: 0.02 % by HPLC
- Any major unknown impurity [2, 5]: 0.02 % by HPLC
- Description [2, 5]: off-white
- Solid form by XRD [2, 5]: Complies
- Total impurity [2, 5]: 0.03 % by HPLC
- Quinolone acid (Imp-3) ([2]; stored at 25 ± 2° C./60 ± 5% RH, Initial, LOD 0.006%): 0.01 % by HPLC
- Any major unknown impurity [2, 6]: 0.01 % by HPLC
- Description [2, 6]: off-white
- Solid form by XRD [2, 6]: Complies
- Total impurity [2, 6]: 0.03 % by HPLC
- Any major unknown impurity [2, 7]: 0.01 % by HPLC
- Description [2, 7]: off-white
- Solid form by XRD [2, 7]: Complies
- Total impurity [2, 7]: 0.03 % by HPLC
- Any major unknown impurity [2, 8]: 0.02 % by HPLC
- Description [2, 8]: off-white
- Impurity at RRT 0.59 [2, 8]: 0.01 % by HPLC
- Solid form by XRD [2, 8]: Complies
- Total impurity [2, 8]: 0.03 % by HPLC
- solubility ([1]; 0.001N HCl + 0.7% SLS, pH 3.12, aqueous with cosolvent or surfactant or cyclodextrin, thermodynamic from solid, 0.001N HCl + 0.7% SLS, pH 3.12, read-out: Solubility): 0.24 mg/mL
- solubility ([1]; 0.01N HCl + 0.7% SLS, pH 2.12, aqueous with cosolvent or surfactant or cyclodextrin, thermodynamic from solid, 0.01N HCl + 0.7% SLS, pH 2.12, read-out: Solubility): 0.26 mg/mL
- solubility ([1]; 50 mM Phosphate buffer + 0.7% SLS, pH 4.6, aqueous with cosolvent or surfactant or cyclodextrin, thermodynamic from solid, 50 mM Phosphate buffer + 0.7% SLS, pH 4.60, read-out: Solubility): 0.38 mg/mL
- solubility ([1]; 0.1N HCl + 0.7% SLS, pH 1.1, aqueous with cosolvent or surfactant or cyclodextrin, thermodynamic from solid, 0.1N HCl + 0.7% SLS, pH 1.10, read-out: Solubility): 0.15 mg/mL
- solubility ([1]; pH 4.5 AB + 0.7% SLS, pH 4.52, aqueous with cosolvent or surfactant or cyclodextrin, thermodynamic from solid, pH 4.5 AB + 0.7% SLS, pH 4.52, read-out: Solubility): 0.31 mg/mL
- solubility ([1]; pH 5.5 PB + 0.7% SLS, pH 5.53, aqueous with cosolvent or surfactant or cyclodextrin, thermodynamic from solid, pH 5.5 PB + 0.7% SLS, pH 5.53, read-out: Solubility): 0.26 mg/mL
- solubility ([1]; pH 6.8 PB + 0.7% SLS, pH 6.8, aqueous with cosolvent or surfactant or cyclodextrin, thermodynamic from solid, pH 6.8 PB + 0.7% SLS, pH 6.80, read-out: Solubility): 0.26 mg/mL
SMILES: CC(C)(C)c1cc(C(C)(C)C)c(NC(=O)c2c[nH]c3ccccc3c2=O)cc1O [Ivacaftor Form-L2, N-(2,4-di-tert-butyl-5-hydroxyphenyl)-1,4-dihydro-4-oxoquinoline-3-carboxamide]
- Polymorphic and chemical identity on storage ([2]; different storage condition (25° C./60% RH and 40° C./75% RH)): retained the same polymorphic and chemical identity at least up to three months
- Solubility compared to amorphous form ([1]; various mediums, Table III): more solubility when compared to amorphous form
